How the values were obtained:
[1] = test system: Korean native steers; assay: Serum hematological properties (biochemical autoanalyzer) under heat stress conditions; format: in vivo, Korean native cattle; parameters: GLO (globulin = TP − ALB) / BUN (blood urea nitrogen) / GLU (glucose) / NEFA (non-esterified fatty acid) / TG (triglyceride) / Na (sodium): unit not given here; conditions: for ALB (albumin) / BUN (blood urea nitrogen) / CPK (creatinine phosphokinase) / GLO (globulin = TP − ALB) / GLU (glucose) / K (potassium) / NEFA (non-esterified fatty acid) / Na (sodium) / TG (triglyceride) / TP (total protein): 0.1% NALT, serum
Description: (§1) After grouping the animals by statistical analysis of initial body weights, the animals were bred in 1.0×1.5 m^2 individual pens during the experiment period. The feed was offered based on an amount of dry matter of daily total mixed ration (TMR) per head. After 7 days of an adaptation period for N-acetyl-L-tryptophan (NALT), a mixture of 0.1% N-acetyl-L-tryptophan (NALT) and the total mixed ration was fed to individual animals every morning at 8 a.m. for 6 weeks, and water was available ad libitum. Total amounts of L-tryptophan ingested by the control and the experimental group (NALT-treated group) by feeding NALT were 6.0 g/day/head and 18.2 g/day/head, respectively. The experiment was performed such that the NALT-treated group ingested 12.2 g/day/head more L-tryptophan than the control.
(§2) Meanwhile, results of growth performance analysis (body weight and average feed intake) and genetic analysis of loin tissue were obtained by statistically comparing and analyzing significant differences between the control and the NALT-treated group, and results of hematological analysis were obtained via statistical comparison and analysis depending on NALT treatment, experiment period (days), and interaction (treatment×days). These numerical values were expressed as average values, and a significance test was performed at the 5% level using Student's t-test by using a JMP 5.0 software package (SAS Institute Inc., Cary, NC, USA).
(§3) Blood samples were collected from a jugular vein of each sentinel animal before offering the feed at the starting day of the experiment (week 0), the mid-point of the experiment (week 5), and the final day of the experiment (week 10) and stored in a vacutainer (Becton Dickinson, Franklin Lakes, NJ, USA). Complete blood cell count (CBC) was performed using whole blood using a VetScan HM2 (Abaxis, Union City, CA, USA), and hematological properties were identified using serum with a biochemical autoanalyzer (FUJI DRI-CHEM 7000, Fujifilm, Tokyo, Japan). In addition, total protein (TP), albumin (ALB), creatinine phosphokinase (CPK), and blood urea nitrogen (BUN), which are related to blood protein metabolism, were analyzed; triglycerides (TG) and non-esterified fatty acid (NEFA), which are related to energy metabolism, were analyzed; and sodium (Na), chlorine (CI), and potassium (K), which are blood electrolytes, were analyzed.

[2] = test system: Korean native steers; assay: Complete blood cell count (CBC) under heat stress conditions; format: in vivo, Korean native cattle; conditions: for GRA (0-2.4) / HCT (23-33) / HGB (8.0-15.0) / LYM (2.5-7.5) / MCH (14-18) / MCHC (30-36) / MCV (40-60) / MON (0-0.84) / MPV (4.5-7.6) / PCT (0.15-0.40) / PDW (56-80) / PLT (100-800) / RBC (5.0-10.0) / RDW (16-20) / WBC (4.0-12.0): 0.1% NALT
Description: as §1, §2, §3

- Hematological analysis indicators (Table 14), effect of treatment with 0.1% NALT [1]: No statistically significant difference
- ALB (albumin) ([1]; Day 0): 3.3
- BUN (blood urea nitrogen) ([1]; Day 0): 16.7
- CPK (creatinine phosphokinase) ([1]; Day 0): 112
- GLO (globulin = TP − ALB) ([1]; Day 0): 2.8
- GLU (glucose) ([1]; Day 0): 49.6
- K (potassium) ([1]; Day 0): 4.7
- NEFA (non-esterified fatty acid) ([1]; Day 0): 139
- Na (sodium) ([1]; Day 0): 141.3
- TG (triglyceride) ([1]; Day 0): 25.5
- TP (total protein) ([1]; Day 0): 6.1
- ALB (albumin) ([1]; Day 35): 3.6
- BUN (blood urea nitrogen) ([1]; Day 35): 19.8
- CPK (creatinine phosphokinase) ([1]; Day 35): 267
- GLO (globulin = TP − ALB) ([1]; Day 35): 2.9
- GLU (glucose) ([1]; Day 35): 39.1
- K (potassium) ([1]; Day 35): 4.8
- NEFA (non-esterified fatty acid) ([1]; Day 35): 167
- Na (sodium) ([1]; Day 35): 142.6
- TG (triglyceride) ([1]; Day 35): 19.1
- TP (total protein) ([1]; Day 35): 6.5
- ALB (albumin) ([1]; Day 70): 3.5
- BUN (blood urea nitrogen) ([1]; Day 70): 18.5
- CPK (creatinine phosphokinase) ([1]; Day 70): 276
- GLO (globulin = TP − ALB) ([1]; Day 70): 2.9
- GLU (glucose) ([1]; Day 70): 56.3
- K (potassium) ([1]; Day 70): 4.9
- NEFA (non-esterified fatty acid) ([1]; Day 70): 168
- Na (sodium) ([1]; Day 70): 141.1
- TG (triglyceride) ([1]; Day 70): 22.1
- TP (total protein) ([1]; Day 70): 6.3
- All CBC test indicators, effect of treatment with 0.1% NALT [2]: No statistically significant difference
- Values of hematological indicators (CBC) relative to normal ranges [2]: within normal ranges
- GRA (0-2.4) ([2]; Day 0): 3.16 10^3/μL
- HCT (23-33) ([2]; Day 0): 6.95%
- HGB (8.0-15.0) ([2]; Day 0): 13.4 g/dL
- LYM (2.5-7.5) ([2]; Day 0): 6.08 10^3/μL
- MCH (14-18) ([2]; Day 0): 14.8 pg
- MCHC (30-36) ([2]; Day 0): 38.3 g/dL
- MCV (40-60) ([2]; Day 0): 38.8 fL
- MON (0-0.84) ([2]; Day 0): 0.22 10^3/μL
- MPV (4.5-7.6) ([2]; Day 0): 6.95 fL
- PCT (0.15-0.40) ([2]; Day 0): 0.24%
- PDW (56-80) ([2]; Day 0): 34.1%
- PLT (100-800) ([2]; Day 0): 332 10^3/μL
- RBC (5.0-10.0) ([2]; Day 0): 9.13 10^6/μL
- RDW (16-20) ([2]; Day 0): 23.6%
- WBC (4.0-12.0) ([2]; Day 0): 9.60 10^3/μL
- GRA (0-2.4) ([2]; Day 35): 3.61 10^3/μL
- HCT (23-33) ([2]; Day 35): 6.58%
- HGB (8.0-15.0) ([2]; Day 35): 11.7 g/dL
- LYM (2.5-7.5) ([2]; Day 35): 5.67 10^3/μL
- MCH (14-18) ([2]; Day 35): 14.7 pg
- MCHC (30-36) ([2]; Day 35): 37.1 g/dL
- MCV (40-60) ([2]; Day 35): 40.0 fL
- MON (0-0.84) ([2]; Day 35): 0.46 10^3/μL
- MPV (4.5-7.6) ([2]; Day 35): 6.58 fL
- PCT (0.15-0.40) ([2]; Day 35): 0.24%
- PDW (56-80) ([2]; Day 35): 31.5%
- PLT (100-800) ([2]; Day 35): 371 10^3/μL
- RBC (5.0-10.0) ([2]; Day 35): 8.04 10^6/μL
- RDW (16-20) ([2]; Day 35): 22.7%
- WBC (4.0-12.0) ([2]; Day 35): 9.74 10^3/μL
- GRA (0-2.4) ([2]; Day 70): 3.66 10^3/μL
- HCT (23-33) ([2]; Day 70): 9.80%
- HGB (8.0-15.0) ([2]; Day 70): 13.8 g/dL
- LYM (2.5-7.5) ([2]; Day 70): 4.91 10^3/μL
- MCH (14-18) ([2]; Day 70): 15.7 pg
- MCHC (30-36) ([2]; Day 70): 37.1 g/dL
- MCV (40-60) ([2]; Day 70): 42.5 fL
- MON (0-0.84) ([2]; Day 70): 0.81 10^3/μL
- MPV (4.5-7.6) ([2]; Day 70): 9.80 fL
- PCT (0.15-0.40) ([2]; Day 70): 0.24%
- PDW (56-80) ([2]; Day 70): 29.5%
- PLT (100-800) ([2]; Day 70): 196 10^3/μL
- RBC (5.0-10.0) ([2]; Day 70): 8.83 10^6/μL
- RDW (16-20) ([2]; Day 70): 23.6%
- WBC (4.0-12.0) ([2]; Day 70): 9.38 10^3/μL
Structure (SMILES): CC(=O)N[C@@H](Cc1c[nH]c2ccccc12)C(=O)O [NALT, N-acetyl-L-tryptophan]

Reference: patent US12186303B2, “Feed additive for cattle comprising n-acetyl-l-tryptophan as active ingredient” (CJ CHEILJEDANG CORPORATION, priority 2018, dated 2025)
